# Results taken from patent US20240165055A1, “TREATMENT” (Verona Pharma PLC, priority 2022, published 2024).
# Tested on: patients with moderate to severe COPD
# Assay: Multi-centre, randomized, double-blind, placebo-controlled clinical study of nebulised ensifentrine in COPD (spirometry, FEV1)
# Assay type: in vivo
# Details: 3 mg BID by nebuliser
# Protocol: A clinical study was conducted to determine the efficacy of ensifentrine in treating COPD compared with placebo. Ensifentrine was administered by nebuliser at a dose of 3 mg twice daily (BID) for 24 weeks. The study was a multi-centre, randomized, double-blind, parallel-group, placebo-controlled trial with around 800 patients and 5:3 randomization.
# The study population included patients aged 40-80 years with moderate to severe COPD (FEV130%-70% p.n., FEVi/forced vital capacity [FVC] ratio <0.7, with mMRC ≥2). The randomization stratified (a) the use of stable background maintenance LAMA or LABA therapy use (approx. 50%. yes or no) and (b) cigarette smoking (current or former). Inhaled corticosteroid (ICS) maintenance therapy was permitted in up to 20% of patients under certain provisions.
# The primary endpoint of the study was change from baseline in average FEV1 area under the curve (AUC)0-12h post-dose at week 12. Secondary endpoints of the study included: peak FEV1 over 4 hours post-dose at Week 12; morning trough FEV1 at Week 12; and other endpoints including moderate/severe COPD exacerbations frequency over 24 Weeks.
# Baseline FEV1 is the mean of the two measurements taken before study medication on the day of first dosing, i.e. ≤40 minutes and just prior to dosing, pre-dose on day 1.
# Average FEV1 AUCO-12h is defined as area under the curve over 12 hours of the FEV1, divided by 12 hours.
# Morning trough FEV1 at Week 12 is defined as the FEVi assessed at 11.5 to 12 hours following the prior evening dose.
# The investigational product and placebo were provided in 2.5 mL unit dose format in an ampule and administered via a nebuliser.
smiles,measurement,setting,value
COc1cc2c(cc1OC)-c1c/c(=N\c3c(C)cc(C)cc3C)n(CCNC(N)=O)c(=O)n1CC2 [Ensifentrine],"Morning Trough FEV1 Week 12: CFB Least Squares Mean, mL (95% CI)","Week 12, FEV1 at 11.5 to 12 hours following the prior evening dose","6.3 (−12.3, 24.9) mL"
same,"Morning Trough FEV1 Week 12: Placebo-corrected CFB LS Mean Diff., mL (95% CI)","Week 12, versus placebo","48.9 (18.3, 79.5) mL"
same,"Improvement in lung function in all subgroups (average FEV1 (AUC)0-12h at Week 12), result in words",all subgroups,All subgroups showed improvement in lung function with ensifentrine that was statistically significant
same,"Morning trough FEV1 at week 12, result in words",week 12,statistically significant effect
